Results on 24 molecules are retold here after patent US9469615B2, “Quinoxalines and AZA-quinoxalines as CRTH2 receptor modulators” (Merck Sharp & Dohme Corp., priority 2010, dated 2016).

One test concerns the target T1, hCRTH2 (Homo sapiens, UniProt Q9Y5Y4).
T1 construct: expressed in transfected cells; host or cells: HEK (human embryonic kidney) cells expressing hCRTH2; membrane preparation
T1 sequence (Q9Y5Y4 1-395): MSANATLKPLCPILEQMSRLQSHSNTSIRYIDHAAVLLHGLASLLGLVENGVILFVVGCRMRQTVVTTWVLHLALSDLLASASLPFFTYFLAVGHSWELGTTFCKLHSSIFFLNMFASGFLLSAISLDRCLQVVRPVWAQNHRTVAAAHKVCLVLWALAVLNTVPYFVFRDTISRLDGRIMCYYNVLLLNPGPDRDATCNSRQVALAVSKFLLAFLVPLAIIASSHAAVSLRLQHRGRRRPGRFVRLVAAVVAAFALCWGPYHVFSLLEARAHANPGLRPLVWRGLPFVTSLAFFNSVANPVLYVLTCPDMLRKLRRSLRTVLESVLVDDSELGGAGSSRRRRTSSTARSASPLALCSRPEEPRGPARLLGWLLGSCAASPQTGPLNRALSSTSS
The test is described as follows: Radioligand binding assay ([3H]PGD2 competition, HEK-hCRTH2 membranes). The conditions noted are these: [3H]PGD2 binding, values in text. In outline: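 Using membranes of an HEK line stably carrying hCRTH2, ligands were tested against [3H]PGD2 (3.0 nM) in pH 7.4 Tris buffer containing 2 mM MnCl2 and 1 mM EDTA. After one hour at room temperature, filters were washed cold and counted.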
Consider `Cc1cnccc1N1CCN(C(=O)c2ccc3nc(-c4ccc(F)cc4)c(CCCCC(=O)O)nc3c2)CC1` [compound 368, 5-(3-(4-fluorophenyl)-7-(4-(3-methylpyridin-4-yl)piperazine-1-carbonyl)quinoxalin-2-yl)pentanoic acid], for which the Ki – broadly, a measure of affinity in units of concentration, obtained from inhibition or displacement – worked out at 21.4 nM.

The same test, now with this note: [3H]PGD2 competition, Table B.
On to `Cc1ccccc1N1CCN(C(=O)c2ccc3nc(-c4ccc(F)cc4)c(CCCCC(=O)O)nc3c2)CC1` [compound 365, 5-(3-(4-fluorophenyl)-7-(4-(o-tolyl)piperazine-1-carbonyl)quinoxalin-2-yl)pentanoic acid], for which the Ki was 2.1 to 20 nM. For `Cc1cccc(N2CCN(C(=O)c3ccc4nc(-c5ccc(F)cc5)c(CCCCC(=O)O)nc4c3)CC2)c1` [compound 366, 5-(3-(4-fluorophenyl)-7-(4-(m-tolyl)piperazine-1-carbonyl)quinoxalin-2-yl)pentanoic acid], the Ki was 2.1 to 20 nM. On the same count and under the same terms, the figure for `COc1ccc(N2CCN(C(=O)c3ccc4nc(-c5ccc(F)cc5)c(CCCCC(=O)O)nc4c3)CC2)cc1` [compound 367, 5-(3-(4-fluorophenyl)-7-(4-(4-methoxyphenyl)piperazine-1-carbonyl)quinoxalin-2-yl)pentanoic acid] is 2.1 to 20 nM; for `Cc1cnccc1N1CCN(C(=O)c2ccc3nc(-c4ccc(F)cc4)c(CCCCC(=O)O)nc3c2)CC1` [compound 368, 5-(3-(4-fluorophenyl)-7-(4-(3-methylpyridin-4-yl)piperazine-1-carbonyl)quinoxalin-2-yl)pentanoic acid] it is 20.1 to 200 nM. Same read-out and setting: the figure for `Cc1ccc(N2CCN(C(=O)c3ccc4nc(-c5ccc(F)cc5)c(CCCCC(=O)O)nc4c3)CC2)cc1` [compound 369, 5-(3-(4-fluorophenyl)-7-(4-(p-tolyl)piperazine-1-carbonyl)quinoxalin-2-yl)pentanoic acid] is 2.1 to 20 nM; for `O=C(O)CCCCc1nc2cc(C(=O)N[C@@H]3CCCc4cccnc43)ccc2nc1-c1ccccc1` [compound 370, (R)-8-(3-(4-carboxybutyl)-2-phenylquinoxaline-6-carboxamido)-5,6,7,8-tetrahydroquinolin-1-ium 2,2,2-trifluoroacetic acid] it is 201 to 700 nM; for `O=C(O)CCCCc1nc2cc(C(=O)N[C@H]3CCCc4cccnc43)ccc2nc1-c1ccccc1` [compound 371, (S)-8-(3-(4-carboxybutyl)-2-phenylquinoxaline-6-carboxamido)-5,6,7,8-tetrahydroquinolin-1-ium 2,2,2-trifluoroacetic acid] it is 2.1 to 20 nM. In turn, `COc1ccc(C2CN(C(=O)c3ccc4nc(-c5ccc(F)cc5)c(CCCCC(=O)O)nc4c3)C2)cc1` [compound 372, 5-(3-(4-fluorophenyl)-7-(3-(4-methoxyphenyl)azetidine-1-carbonyl)quinoxalin-2-yl)pentanoic acid] showed a Ki of 2.1 to 20 nM.

`COc1cccc(C2CN(C(=O)c3ccc4nc(-c5ccc(F)cc5)c(CCCCC(=O)O)nc4c3)C2)c1` [compound 373, 5-(3-(4-fluorophenyl)-7-(3-(3-methoxyphenyl)azetidine-1-carbonyl)quinoxalin-2-yl)pentanoic acid]: the Ki was 2.1 to 20 nM. Same read-out and setting: in the case of `C[C@@H](NC(=O)c1ccc2nc(-c3ccc(Cl)cc3)c(CCCCC(=O)O)nc2c1)c1ccc(F)c(F)c1` [compound 374, (R)-5-(3-(4-chlorophenyl)-7-((1-(3,4-difluorophenyl)ethyl)carbamoyl)quinoxalin-2-yl)pentanoic acid] it was 0.1 to 2 nM; in that of `C[C@H](NC(=O)c1ccc2nc(-c3ccc(Cl)cc3)c(CCCCC(=O)O)nc2c1)c1ccc(F)c(F)c1` [compound 375, (S)-5-(3-(4-chlorophenyl)-7-((1-(3,4-difluorophenyl)ethyl)carbamoyl)quinoxalin-2-yl)pentanoic acid], 0.1 to 2 nM; in that of `CC[C@@H](NC(=O)c1ccc2nc(-c3ccc(Cl)cc3)c(CCCCC(=O)O)nc2c1)c1ccc(F)cc1` [compound 376, (R)-5-(3-(4-chlorophenyl)-7-((1-(4-fluorophenyl)propyl)carbamoyl)quinoxalin-2-yl)pentanoic acid], 2.1 to 20 nM. Molecule `CC[C@H](NC(=O)c1ccc2nc(-c3ccc(Cl)cc3)c(CCCCC(=O)O)nc2c1)c1ccc(F)cc1` [compound 377] yielded a Ki of 2.1 to 20 nM. Molecule `CN(C(=O)c1ccc2nc(-c3ccccc3)c(CCCCC(=O)O)nc2c1)[C@@H]1CCCc2ccccc21` [compound 378, (R)-5-(7-(methyl(1,2,3,4-tetrahydronaphthalen-1-yl)carbamoyl)-3-phenylquinoxalin-2-yl)pentanoic acid] displayed a Ki of 20.1 to 200 nM. `CN(C(=O)c1ccc2nc(-c3ccccc3)c(CCCCC(=O)O)nc2c1)[C@@H]1CCCc2cc(F)ccc21` [compound 379, (R)-5-(7-((6-fluoro-1,2,3,4-tetrahydronaphthalen-1-yl)(methyl)carbamoyl)-3-phenylquinoxalin-2-yl)pentanoic acid] showed a Ki of 2.1 to 20 nM. As to `CN(C(=O)c1ccc2nc(-c3ccccc3)c(CCCCC(=O)O)nc2c1)[C@@H]1CCCc2cc(Cl)ccc21` [compound 380, (R)-5-(7-((6-chloro-1,2,3,4-tetrahydronaphthalen-1-yl)(methyl)carbamoyl)-3-phenylquinoxalin-2-yl)pentanoic acid], the Ki was in the range of 2.1 to 20 nM. `O=C(O)CCCCc1nc2cc(C(=O)N[C@@H]3CCc4cc(F)ccc43)ccc2nc1-c1ccc(Cl)cc1` [compound 381, (R)-5-(3-(4-chlorophenyl)-7-((5-fluoro-2,3-dihydro-1H-inden-1-yl)carbamoyl)quinoxalin-2-yl)pentanoic acid] registered a Ki of 0.1 to 2 nM. In the case of `O=C(O)CCCCc1nc2cc(C(=O)N[C@H]3CCc4cc(F)ccc43)ccc2nc1-c1ccc(Cl)cc1` [compound 382, (S)-5-(3-(4-chlorophenyl)-7-((5-fluoro-2,3-dihydro-1H-inden-1-yl)carbamoyl)quinoxalin-2-yl)pentanoic acid], the Ki was 0.1 to 2 nM. On to `O=C(O)CCCCc1nc2cc(C(=O)N[C@@H]3CCc4cc(Cl)ccc43)ccc2nc1-c1ccc(Cl)cc1` [compound 383, (R)-5-(7-((5-chloro-2,3-dihydro-1H-inden-1-yl)carbamoyl)-3-(4-chlorophenyl)quinoxalin-2-yl)pentanoic acid], for which the Ki fell in the range of 0.1 to 2 nM. In turn, `O=C(O)CCCCc1nc2cc(C(=O)N[C@H]3CCc4cc(Cl)ccc43)ccc2nc1-c1ccc(Cl)cc1` [compound 384, (S)-5-(7-((5-chloro-2,3-dihydro-1H-inden-1-yl)carbamoyl)-3-(4-chlorophenyl)quinoxalin-2-yl)pentanoic acid] came in with a Ki of 0.1 to 2 nM. In turn, `O=C(O)CCCCc1nc2cc(C(=O)N[C@H]3CCCc4cc(F)ccc43)ccc2nc1-c1ccccc1` [compound 385, (S)-5-(7-((6-fluoro-1,2,3,4-tetrahydronaphthalen-1-yl)carbamoyl)-3-phenylquinoxalin-2-yl)pentanoic acid] yielded a Ki of 2.1 to 20 nM. Same read-out and setting: the figure for `O=C(O)CCCCc1nc2cc(C(=O)N[C@@H]3CCCc4cc(Cl)ccc43)ccc2nc1-c1ccccc1` [compound 386, (R)-5-(7-((6-chloro-1,2,3,4-tetrahydronaphthalen-1-yl)carbamoyl)-3-phenylquinoxalin-2-yl)pentanoic acid] is 0.1 to 2 nM; for `O=C(O)CCCCc1nc2cc(C(=O)N[C@H]3CCCc4cc(Cl)ccc43)ccc2nc1-c1ccccc1` [compound 387, (S)-5-(7-((6-chloro-1,2,3,4-tetrahydronaphthalen-1-yl)carbamoyl)-3-phenylquinoxalin-2-yl)pentanoic acid] it is 2.1 to 20 nM; for `O=C(O)CCCCc1nc2cc(C(=O)N[C@H]3CCCc4ccccc43)ccc2nc1-c1ccccc1` [compound 388, (S)-5-(3-phenyl-7-((1,2,3,4-tetrahydronaphthalen-1-yl)carbamoyl)quinoxalin-2-yl)pentanoic acid] it is 2.1 to 20 nM.
